From patent US20160263221A1, “MULTI-RESPONSIVE TARGETING DRUG DELIVERY SYSTEMS FOR CONTROLLED-RELEASE PHARMACEUTICAL FORMULATION” (priority 2013, published 2016)

System: HeLa tumor
Assay: therapeutic efficacy in HeLa tumor bearing SCID mice, volume of cancer as a function of time
Assay type: in vivo
Conditions: FIG. 6
Description: The inventors determine the therapeutic efficacy of the multi-responsive targeting nano-containers of the present invention using HeLa tumor bearing SCID mice and monitor the volume of cancer as a function of time.

## COc1cccc2c1C(=O)c1c(O)c3c(c(O)c1C2=O)C[C@@](O)(C(=O)CO)C[C@@H]3O[C@H]1C[C@H](N)[C@H](O)[C@H](C)O1 [Doxorubicin, doxorubicin]
  volume of the cancer as a function of time: the volume of the cancer increases with time
